Experimental data published in the supplement of paper PMC10307832.

What was measured:
Test in all cases: relative viability (nuclei count vs DMSO), 5 days (fraction); higher = more cells survive
[1] = system: LOU-NH91
Outline: (§1)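 Lung cancer cell lines, seeded in 1536-well plates, were treated the following day by pin tool with a single drug or with five library-drug doses (not always all listed) in √10 steps on top of a fixed anchor-drug dose. Cells were fixed and nuclei stained in one step after 5 days, and nuclei were counted. Relative viability is the nuclei count for treated wells divided by that for vehicle wells, reported as medians of duplicate plates.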

[2] = system: HCC-44
Outline: as §1

[3] = system: NCI-H647
Outline: as §1

[4] = system: NCI-H727
Outline: as §1

[5] = system: NCI-H2347
Outline: as §1

[6] = system: NCI-H838
Outline: as §1

[7] = system: NCI-H1395
Outline: as §1

[8] = system: NCI-H441
Outline: as §1

[9] = system: 201T
Outline: as §1

[10] = system: LCLC-103H
Outline: as §1

[11] = system: NCI-H2087
Outline: as §1

[12] = system: NCI-H23
Outline: as §1

[13] = system: NCI-H3122
Outline: as §1

[14] = system: NCI-H522
Outline: as §1

[15] = system: EMC-BAC-2
Outline: as §1

[16] = system: NCI-H596
Outline: as §1

[17] = system: NCI-H650
Outline: as §1

[18] = system: NCI-H2023
Outline: as §1

[19] = system: NCI-H2126
Outline: as §1

[20] = system: NCI-H1993
Outline: as §1

[21] = system: HARA
Outline: as §1

[22] = system: BEN
Outline: as §1

Cc1sc2c(c1C)C(c1ccc(Cl)cc1)=N[C@@H](CC(=O)OC(C)(C)C)c1nnc(C)n1-2 [JQ1] + CCNC(=O)c1noc(-c2cc(C(C)C)c(O)cc2O)c1-c1ccc(CN2CCOCC2)cc1 [Luminespib] (partner 0.01 µM)
relative viability ([1]; first compound 0.04 µM): 0.371
relative viability ([1]; first compound 0.1265 µM): 0.371
relative viability ([1]; first compound 0.4 µM): 0.31
relative viability ([1]; first compound 1.265 µM): 0.285
relative viability ([1]; first compound 4 µM): 0.271
relative viability ([2]; first compound 0.04 µM): 0.968
relative viability ([2]; first compound 0.1265 µM): 0.433
relative viability ([2]; first compound 0.4 µM): 0.551
relative viability ([2]; first compound 1.265 µM): 0.388
relative viability ([2]; first compound 4 µM): 0.153
relative viability ([3]; first compound 0.04 µM): 0.239
relative viability ([3]; first compound 0.1265 µM): 0.113
relative viability ([3]; first compound 0.4 µM): 0.134
relative viability ([3]; first compound 1.265 µM): 0.113
relative viability ([3]; first compound 4 µM): 0.073
relative viability ([4]; first compound 0.04 µM): 0.357
relative viability ([4]; first compound 0.1265 µM): 0.423
relative viability ([4]; first compound 0.4 µM): 0.45
relative viability ([4]; first compound 1.265 µM): 0.35
relative viability ([4]; first compound 4 µM): 0.346
relative viability ([5]; first compound 0.04 µM): 0.45
relative viability ([5]; first compound 0.1265 µM): 0.675
relative viability ([5]; first compound 0.4 µM): 0.3
relative viability ([5]; first compound 1.265 µM): 0.316
relative viability ([5]; first compound 4 µM): 0.32
relative viability ([6]; first compound 0.04 µM): 0.289
relative viability ([6]; first compound 0.1265 µM): 0.288
relative viability ([6]; first compound 0.4 µM): 0.222
relative viability ([6]; first compound 1.265 µM): 0.161
relative viability ([6]; first compound 4 µM): 0.144
relative viability ([7]; first compound 0.04 µM): 0.761
relative viability ([7]; first compound 0.1265 µM): 0.681
relative viability ([7]; first compound 0.4 µM): 0.808
relative viability ([7]; first compound 1.265 µM): 0.399
relative viability ([7]; first compound 4 µM): 0.458
relative viability ([8]; first compound 0.04 µM): 0.37
relative viability ([8]; first compound 0.1265 µM): 0.501
relative viability ([8]; first compound 0.4 µM): 0.419
relative viability ([8]; first compound 1.265 µM): 0.253
relative viability ([8]; first compound 4 µM): 0.235
relative viability ([9]; first compound 0.04 µM): 1.06
relative viability ([9]; first compound 0.1265 µM): 0.77
relative viability ([9]; first compound 0.4 µM): 0.745
relative viability ([9]; first compound 1.265 µM): 0.753
relative viability ([9]; first compound 4 µM): 0.522
relative viability ([10]; first compound 0.04 µM): 0.973
relative viability ([10]; first compound 0.1265 µM): 0.85
relative viability ([10]; first compound 0.4 µM): 0.533
relative viability ([10]; first compound 1.265 µM): 0.47
relative viability ([10]; first compound 4 µM): 0.358
relative viability ([11]; first compound 0.04 µM): 0.122
relative viability ([11]; first compound 0.1265 µM): 0.171
relative viability ([11]; first compound 0.4 µM): 0.173
relative viability ([11]; first compound 1.265 µM): 0.129
relative viability ([11]; first compound 4 µM): 0.178
relative viability ([12]; first compound 0.04 µM): 0.247
relative viability ([12]; first compound 0.1265 µM): 0.185
relative viability ([12]; first compound 0.4 µM): 0.179
relative viability ([12]; first compound 1.265 µM): 0.166
relative viability ([12]; first compound 4 µM): 0.173
relative viability ([13]; first compound 0.04 µM): 0.0811
relative viability ([13]; first compound 0.1265 µM): 0.0744
relative viability ([13]; first compound 0.4 µM): 0.162
relative viability ([13]; first compound 1.265 µM): 0.0911
relative viability ([13]; first compound 4 µM): 0.131
relative viability ([14]; first compound 0.04 µM): 1.12
relative viability ([14]; first compound 0.1265 µM): 1.21
relative viability ([14]; first compound 0.4 µM): 0.677
relative viability ([14]; first compound 1.265 µM): 0.601
relative viability ([14]; first compound 4 µM): 0.504
relative viability ([15]; first compound 0.04 µM): 1.16
relative viability ([15]; first compound 0.1265 µM): 1.09
relative viability ([15]; first compound 0.4 µM): 0.925
relative viability ([15]; first compound 1.265 µM): 0.472
relative viability ([15]; first compound 4 µM): 0.477
relative viability ([16]; first compound 0.04 µM): 1.09
relative viability ([16]; first compound 0.1265 µM): 0.769
relative viability ([16]; first compound 0.4 µM): 0.495
relative viability ([16]; first compound 1.265 µM): 0.344
relative viability ([16]; first compound 4 µM): 0.287
relative viability ([17]; first compound 0.04 µM): 0.743
relative viability ([17]; first compound 0.1265 µM): 0.7
relative viability ([17]; first compound 0.4 µM): 0.546
relative viability ([17]; first compound 1.265 µM): 0.203
relative viability ([17]; first compound 4 µM): 0.212
relative viability ([18]; first compound 0.04 µM): 0.731
relative viability ([18]; first compound 0.1265 µM): 0.67
relative viability ([18]; first compound 0.4 µM): 0.358
relative viability ([18]; first compound 1.265 µM): 0.107
relative viability ([18]; first compound 4 µM): 0.146
relative viability ([19]; first compound 0.04 µM): 0.968
relative viability ([19]; first compound 0.1265 µM): 0.767
relative viability ([19]; first compound 0.4 µM): 0.977
relative viability ([19]; first compound 1.265 µM): 0.864
relative viability ([19]; first compound 4 µM): 0.659
relative viability ([20]; first compound 0.04 µM): 1.03
relative viability ([20]; first compound 0.1265 µM): 0.789
relative viability ([20]; first compound 0.4 µM): 0.821
relative viability ([20]; first compound 1.265 µM): 0.637
relative viability ([20]; first compound 4 µM): 0.889
relative viability ([21]; first compound 0.04 µM): 0.65
relative viability ([21]; first compound 0.1265 µM): 0.508
relative viability ([21]; first compound 0.4 µM): 0.374
relative viability ([21]; first compound 1.265 µM): 0.168
relative viability ([21]; first compound 4 µM): 0.153
relative viability ([22]; first compound 0.04 µM): 0.259
relative viability ([22]; first compound 0.1265 µM): 0.329
relative viability ([22]; first compound 0.4 µM): 0.379
relative viability ([22]; first compound 1.265 µM): 0.126
relative viability ([22]; first compound 4 µM): 0.169
